The subject of one data set is PMA-induced ear swelling. The data set can be described thus: Topical, Phorbol Ester Mouse Ear Assay. Format: in vivo, CD-1 (Crl.) derived male mice. As for the experimental part:
5-(4-Cyanophenoxy)-1-hydroxy-2,1-dihydrobenzoxaborole and betamethasone were provided by Anacor Pharmaceuticals, Inc. Betamethasone is used to treat the itching, redness, dryness, crusting, scaling, inflammation, and discomfort of various skin conditions.
Test substances were each applied topically to the right ear of the test animal 30 minutes before and 15 minutes after Phorbol 12-Myristate 13-Acetate (PMA) was applied. The dosing volume was 20 μl/ear for solvent vehicle or 20 mg/ear for cream formulations.
Male CD-1 (Crl.) derived mice weighing 24±2 g were provided by BioLasco Taiwan (under Charles River Laboratories Technology Licensee). Space allocation for 10 animals was 29×18×13 cm. Mice were housed in APEC® cages. All animals were maintained in a controlled temperature (22° C.-23° C.) and humidity (70%-80%) environment with 12 hours light dark cycles for at least one week in MDS Pharma Services—Taiwan Laboratory prior to use. Free access to standard lab chow for mice (Lab Diet, Rodent Diet, PMI Nutrition International, USA) and tap water was granted. All aspects of this work including housing, experimentation and disposal of animals were performed in general accordance with the Guide for the Care and Use of Laboratory Animals (National Academy Press, Washington, D.C., 1996).
Groups of 5 CD-1 (Crl.) derived male mice weighing 24±2 g were used. PMA ([…] in 20 μl of Acetone) was applied topically to the anterior and posterior surfaces of the right ear to each animal. Vehicle (Ethanol:Acetone/1:1, 20 μL/ear or cream, 20 mg/ear) and test substances including 5-(4-cyanophenoxy)-1-hydroxy-2,1-dihydrobenzoxaborole and betamethasone were each applied 30 minutes before and 15 minutes after PMA application. […] Ear swelling was then measured by a Dyer model micrometer gauge at 6 hours after PMA application as an index of inflammation. Percent inhibition was calculated according to the formula: ([Ic−It]/Ic)×100%, where Ic and It refer to increase of ear thickness (mm) in control and treated mice, respectively. […]

What is called melting point is the temperature, or range, at which the solid turns liquid.

In the case of `N#Cc1ccc(Oc2ccc3c(c2)COB3O)cc1` [C17, 5-(4-Cyanophenoxy)-1,3-dihydro-1-hydroxy-2,1-benzoxaborole], in the data set with PMA-induced ear swelling (0.2 mg/ear×2 topical, 30 min before and 15 min after PMA, ear swelling measured 6 hours after PMA), the “Percent inhibition of ear swelling induced by topical phorbol ester” value was determined as 22%. Moreover, in the data set on PMA-induced ear swelling (1 mg/ear×2, versus vehicle or cream placebo control), the “inhibition of the PMA-induced ear swelling (in words)” value is on record as “significant inhibition”.

The molecule `O=S(=O)(c1ccccc1)N(c1ccc2c(c1)COB2O)S(=O)(=O)c1ccccc1` [C91, N-(1-hydroxy-1,3-dihydrobenzo[c][1,2]oxaborol-5-yl)-N-(phenylsulfonyl)benzenesulfonamide] displayed a melting point of 142 to 152 °C.

The molecule `OB1OCc2ccc(Sc3ccc(C(F)(F)F)cc3)cc21` [C92, 6-(4-(trifluoromethyl)phenylthio)benzo[c][1,2]oxaborol-1(3H)-ol] gave a melting point of 111 to 113 °C.

Consider `[O-][S+](c1ccc(C(F)(F)F)cc1)c1ccc2c(c1)B(O)OC2` (centres unmarked) [C93, 6-(4-(trifluoromethyl)phenylsulfinyl)benzo[c][1,2]oxaborol-1(3H)-ol], for which the melting point was in the range of 79 to 88 °C.

As for `CSc1ccc(Sc2ccc3c(c2)B(O)OC3)cc1` [C94, 6-(4-(methylthio)phenylthio)benzo[c][1,2]oxaborol-1(3H)-ol], the melting point was in the range of 117 to 120 °C.

`Cc1ccc(Sc2ccc3c(c2)B(O)OC3)cc1` [C95, 6-(p-tolylthio)benzo[c][1,2]oxaborol-1(3H)-ol] yielded a melting point of 139 to 144 °C.

`N#Cc1cccc(COc2ccc3c(c2)COB3O)c1` [C96, 3-((1-hydroxy-1,3-dihydrobenzo[c][1,2]oxaborol-5-yloxy)methyl)benzonitrile] showed a melting point of 147 to 150 °C.

On to `N#Cc1ccc(Oc2cccc(B(O)O)c2)cc1` [C98, 3-(4-Cyanophenoxy)phenylboronic acid], for which the melting point lay in the range of 153 to 162 °C.

For the molecule `Cc1cc(Oc2ccc(C#N)cc2)ccc1B(O)O` [C99, 4-(4-Cyanophenoxy)-2-Methylphenylboronic acid], the melting point was in the range of 161 to 165 °C.

Regarding `C[C@@H]1C[C@H]2[C@@H]3CCC4=CC(=O)C=C[C@]4(C)[C@@]3(F)[C@@H](O)C[C@]2(C)[C@@]1(O)C(=O)CO` [dexamethasone, Dexamethasone, reference compound], in the data set on PMA-induced ear swelling (3 mg/ear topical, positive control, 6 hours after PMA), the “decrease in the ear swelling relative to the vehicle (Ethanol:Acetone/1:1)-treated group” value is reported as 72%.

Values taken from patent US9682092B2, “Boron-containing small molecules as anti-inflammatory agents” (ANACOR PHARMACEUTICALS, INC., priority 2006, dated 2017).
